Key:
[1] = test system: C57BL/6J mice with Ang II-induced myocardial hypertrophy; assay: Cardiac ultrasonography of mice with Ang II-induced myocardial hypertrophy; assay type: in vivo, mouse; conditions: 10 mg/kg/d intraperitoneal, 4 weeks, FIG. 22
Method: (§1) Model construction was performed by adopting C57BL/6J wild-type mice with subcutaneous implantation and perfusion of angiotensin II (AngII)/normal saline (Saline) through an Alzet Osmotic Pump 2004. Relevant statistical results were obtained after continuous feeding, modeling and administration for 4 weeks.
Model construction: Weighing and anesthetization were performed, and skin preparation and disinfection were performed in surgical areas. A 1 cm incision above a scapula of a front leg was made by using surgical scissors, wherein the incision was perpendicular to a tail part. The skin was cut carefully without damaging underlying tissues, a subcutaneous tunnel was made under the skin by using hemostatic forceps, the pump with a regulator head was completely pushed into a pocket (pointing toward a tail end of each mouse), and the incision was sutured. […]
In the experiment, a Vinno 6LAB high-resolution ultrasonic detector for small animals was used for detection in a two-dimensional (2D) parasternal short-axis M mode. […] Each indicator was detected for 3-6 cardiac cycles, and a mean value of the measured cardiac cycles was calculated.

HCM-iPSC-CMs = assay: Patch clamp action potential of iPSC-CMs; assay type: cell-based, human; conditions: 30 μM, 48 hours, compared with DNJ-1, FIG. 21
Method: TrypLE was added into induced cardiomyocytes, and after digestion at 37° C. for 3 min, an RPMI complete culture medium was added. The cells were centrifuged at a low speed, resuspended with RPMI/B27, and inoculated into an 8 mm Matrigel-coated slide at a ratio of 1:10. The cells were placed in an environment with 5% of CO2 for culture at 37° C. At 16 hours after the inoculation, the culture medium was replaced with a fresh RPMI/B27 culture medium, 30 μM small molecule drugs were added in an experimental group, and DMSO of an equal volume was added in a control group. At 48 hours after the culture, the action potential of the cardiomyocytes was recorded. Cell slides were removed, placed in a constant-temperature patch clamp bath at 37° C., and continuously perfused and rinsed with an extracellular fluid. Cell membranes of the cardiomyocytes were sucked and broken at a negative pressure, and the action potential of the cells capable of spontaneously pulsating was recorded. Data were collected and analyzed through Patch Master (HEKA), Fit Master (HEKA), Igor Pro (Wavemetrics) and Origin 6.1 (Microcal) software.

[2] = test system: C57BL/6J mice with Ang II-induced myocardial hypertrophy; assay: Heart weight/body weight of Ang II mice; assay type: in vivo, mouse; conditions: 10 mg/kg/d intraperitoneal, 4 weeks, FIG. 23
Method: as §1
(§2) Administration method: Intraperitoneal injection was adopted at a drug dose of 10 mg/kg/d, drugs were dissolved in a phosphate buffer solution (PBS) and administered twice a day in the morning and the evening, and a placebo group was given a phosphate buffer solution (PBS) of a same volume.
After continuous feeding, modeling and administration for 4 weeks, indicators, such as body weight, of mice were measured before sampling, then the mice were deeply anesthetized with isoflurane, and the mice were sacrificed after completely losing the sense of pain. Hearts were obtained after the mice were sacrificed, and indicators, such as heart weight, were measured.
In histological analysis, the hearts of the mice were collected, cut along maximum cross sections, and fixed with 4% paraformaldehyde. Subsequently, paraffin embedding, sectioning and hematoxylin-eosin (HE) staining of the maximum cross sections were performed. […] The sections were scanned by a scanner (3DHISTECH), and obtained and measured through software slideviewer.

[3] = test system: C57BL/6J mice with Ang II-induced myocardial hypertrophy; assay: Transmission electron microscopy of mitochondria in mouse heart tissue; assay type: in vivo; conditions: 10 mg/kg/d intraperitoneal, 4 weeks, TEM, FIG. 24
Method: as §1, §2
After mice were sacrificed, a small portion of left ventricular tissues were taken, and cardiac muscles were trimmed to achieve cubes with a size of 1 mm^3. According to arrangement directions of mitochondria in the cardiac muscle tissues, tissues were selected respectively along long axes and short axes of hearts, and samples for transmission electron microscopy were prepared subsequently. […]

CC(C)(C)C(=O)OC[C@H]1NC[C@H](O)[C@@H](O)[C@@H]1O [DNJ-5a, ((2R,3R,4R,5S)-3,4,5-trihydroxypiperidin-2-yl)methyl pivalate]
cardiac ultrasonography parameters (EF, FS, LVPWd, LVPWs) [1]: better performance | proportion of electrophysiologically abnormal cells (action potential) (HCM-iPSC-CMs): improve the proportion of electrophysiologically abnormal cells in HCM-iPSC-CMs more significantly | heart weight/body weight [2]: better performance | mitochondrial ultrastructure of heart tissue (crista, vacuolation proportion) [3]: more significantly improve the ultrastructure of the mitochondrial crista and decrease a vacuolation proportion

Reference: US20260209177A1, “1-DEOXYNOJIRIMYCIN DERIVATIVE AND USE THEREOF” (ZHEJIANG UNIVERSITY, priority 2022, published 2026)
